In ChEMBL document CHEMBL1201862, “PubChem BioAssay data set” (2004):
Values joined by “and” are separate entries in the source; they are usually repeats but may differ in a detail not shown here. Identical values can stand only once. Active and inactive are the calls of the source.

Key:
[1] = viability loss in A549 lung cells – cell-based, 24 h, CellTiter-Glo luminescence, cherry-picks, cytotoxicity control, dose response (AID 1053115); format: functional; conditions: A549, 24 h
[2] = molecular target: T1, Sentrin-specific protease 6 (Homo sapiens, UniProt Q9GZR1); assay: SAR Analysis of small molecule inhibitors of Sentrin-specific protease 6 (SENP6) using a Luminescent assay. [Related pubchem assays (depositor defined):AID2582, AID2599]; format: functional
T1 sequence (Q9GZR1 whole entry): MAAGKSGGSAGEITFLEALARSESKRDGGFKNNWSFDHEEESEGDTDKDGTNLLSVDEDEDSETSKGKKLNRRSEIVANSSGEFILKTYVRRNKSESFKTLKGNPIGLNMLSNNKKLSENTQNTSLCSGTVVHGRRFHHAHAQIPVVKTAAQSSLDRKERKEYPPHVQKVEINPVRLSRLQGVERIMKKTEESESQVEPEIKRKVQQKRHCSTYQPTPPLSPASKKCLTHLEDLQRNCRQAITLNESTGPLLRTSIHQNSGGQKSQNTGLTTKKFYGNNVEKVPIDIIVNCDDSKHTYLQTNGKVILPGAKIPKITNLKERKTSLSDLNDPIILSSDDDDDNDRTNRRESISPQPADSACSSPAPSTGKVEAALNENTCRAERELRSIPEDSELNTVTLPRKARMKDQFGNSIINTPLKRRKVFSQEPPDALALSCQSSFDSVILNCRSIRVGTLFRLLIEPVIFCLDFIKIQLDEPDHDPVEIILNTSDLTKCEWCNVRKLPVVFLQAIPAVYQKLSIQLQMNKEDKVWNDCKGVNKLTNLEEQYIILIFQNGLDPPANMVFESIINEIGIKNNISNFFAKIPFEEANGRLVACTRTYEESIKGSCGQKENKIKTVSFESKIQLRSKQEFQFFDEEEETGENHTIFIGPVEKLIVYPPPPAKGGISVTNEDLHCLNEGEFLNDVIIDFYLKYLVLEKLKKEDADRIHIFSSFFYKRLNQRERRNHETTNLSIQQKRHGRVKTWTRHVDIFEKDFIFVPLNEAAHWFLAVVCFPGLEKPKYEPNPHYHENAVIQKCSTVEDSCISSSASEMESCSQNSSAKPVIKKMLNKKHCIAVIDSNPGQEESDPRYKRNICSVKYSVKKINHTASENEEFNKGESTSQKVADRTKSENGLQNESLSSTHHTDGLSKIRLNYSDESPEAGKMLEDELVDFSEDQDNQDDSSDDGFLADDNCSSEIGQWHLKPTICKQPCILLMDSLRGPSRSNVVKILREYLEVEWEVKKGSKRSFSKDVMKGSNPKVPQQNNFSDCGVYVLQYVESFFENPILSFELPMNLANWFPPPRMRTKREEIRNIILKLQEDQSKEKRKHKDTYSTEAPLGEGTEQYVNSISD

[3] = molecular target: T2, Sentrin-specific protease 8 (Homo sapiens, UniProt Q96LD8); assay: inhibition of human SENP8 cleavage activity – biochemical, luminescence, SAR follow-up (AID 504501); format: functional
T2 sequence (Q96LD8 whole entry): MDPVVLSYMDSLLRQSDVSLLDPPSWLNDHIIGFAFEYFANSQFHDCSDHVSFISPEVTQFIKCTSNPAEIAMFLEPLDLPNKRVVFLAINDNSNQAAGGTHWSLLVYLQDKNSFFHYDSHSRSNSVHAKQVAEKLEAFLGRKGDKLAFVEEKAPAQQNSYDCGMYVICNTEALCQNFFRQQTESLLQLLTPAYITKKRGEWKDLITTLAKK

Caspase-3 [4] = molecular target: T3, Caspase-3 (Homo sapiens, UniProt P42574); assay: SAR Analysis of small molecule inhibitors of Sentrin-specific proteases (SENPs) using a Caspase-3 Selectivity assay. [Related pubchem assays (depositor defined):AID2540, AID2599, AID434973, AID489001]; format: functional
T3 sequence (P42574 whole entry): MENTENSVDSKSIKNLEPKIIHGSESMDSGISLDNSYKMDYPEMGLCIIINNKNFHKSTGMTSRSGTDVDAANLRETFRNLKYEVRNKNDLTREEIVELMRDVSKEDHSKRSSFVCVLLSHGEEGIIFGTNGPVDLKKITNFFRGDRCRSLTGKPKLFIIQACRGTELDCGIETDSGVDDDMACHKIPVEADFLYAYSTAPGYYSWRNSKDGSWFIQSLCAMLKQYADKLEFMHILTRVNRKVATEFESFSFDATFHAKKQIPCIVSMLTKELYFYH

[5] = molecular target: T1, Sentrin-specific protease 6; format: functional
[6] = molecular target: T4, Sentrin-specific protease 7 (Homo sapiens, UniProt Q9BQF6); assay: inhibition of human SENP7 cleavage activity – biochemical, luminescence, SAR follow-up (AID 504497); format: functional
T4 sequence (Q9BQF6 whole entry): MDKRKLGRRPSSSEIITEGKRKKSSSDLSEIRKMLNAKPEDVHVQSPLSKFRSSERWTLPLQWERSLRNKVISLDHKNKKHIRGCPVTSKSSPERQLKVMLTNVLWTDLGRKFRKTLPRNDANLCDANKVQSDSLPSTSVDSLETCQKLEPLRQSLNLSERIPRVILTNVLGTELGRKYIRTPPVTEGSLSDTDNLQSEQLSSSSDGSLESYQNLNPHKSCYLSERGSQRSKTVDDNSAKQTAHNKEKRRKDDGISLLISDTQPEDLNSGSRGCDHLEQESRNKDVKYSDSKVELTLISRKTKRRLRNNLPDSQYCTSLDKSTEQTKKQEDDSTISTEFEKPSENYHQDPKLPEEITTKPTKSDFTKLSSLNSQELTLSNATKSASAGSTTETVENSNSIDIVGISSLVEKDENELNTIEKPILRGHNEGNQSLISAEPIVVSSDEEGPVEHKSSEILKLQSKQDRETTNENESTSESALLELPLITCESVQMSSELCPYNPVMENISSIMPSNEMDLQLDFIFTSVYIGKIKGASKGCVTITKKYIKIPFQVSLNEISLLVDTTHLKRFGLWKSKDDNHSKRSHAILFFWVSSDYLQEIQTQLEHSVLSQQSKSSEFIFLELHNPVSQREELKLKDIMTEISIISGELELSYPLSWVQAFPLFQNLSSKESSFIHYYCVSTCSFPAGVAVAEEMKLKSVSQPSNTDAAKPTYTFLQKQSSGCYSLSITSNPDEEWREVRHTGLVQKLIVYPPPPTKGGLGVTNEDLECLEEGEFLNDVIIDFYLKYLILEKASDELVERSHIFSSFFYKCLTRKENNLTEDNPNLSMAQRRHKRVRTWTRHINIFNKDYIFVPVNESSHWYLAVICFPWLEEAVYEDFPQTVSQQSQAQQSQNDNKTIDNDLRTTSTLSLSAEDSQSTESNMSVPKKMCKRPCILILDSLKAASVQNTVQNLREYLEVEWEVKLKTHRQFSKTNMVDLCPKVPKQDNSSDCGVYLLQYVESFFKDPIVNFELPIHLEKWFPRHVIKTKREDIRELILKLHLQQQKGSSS

Cytochrome P450 2D6 = Cytochrome P450 2D6 (Homo sapiens, UniProt P10635);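 note: CYP2D6 member of a cytochrome P450 panel assay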
Sequence of Cytochrome P450 2D6 (P10635 whole entry): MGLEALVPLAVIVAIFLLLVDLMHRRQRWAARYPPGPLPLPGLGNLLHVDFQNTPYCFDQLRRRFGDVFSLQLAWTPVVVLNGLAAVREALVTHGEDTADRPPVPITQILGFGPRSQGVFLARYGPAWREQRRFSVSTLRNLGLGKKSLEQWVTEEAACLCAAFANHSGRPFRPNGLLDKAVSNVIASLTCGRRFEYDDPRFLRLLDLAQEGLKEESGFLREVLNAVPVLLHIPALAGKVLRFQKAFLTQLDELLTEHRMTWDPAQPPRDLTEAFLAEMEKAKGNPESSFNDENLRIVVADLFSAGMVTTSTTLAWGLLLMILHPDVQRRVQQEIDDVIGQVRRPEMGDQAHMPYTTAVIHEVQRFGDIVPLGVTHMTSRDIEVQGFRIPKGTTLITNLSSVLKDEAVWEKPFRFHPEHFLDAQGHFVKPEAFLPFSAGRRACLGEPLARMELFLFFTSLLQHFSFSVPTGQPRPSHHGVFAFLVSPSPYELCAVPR

cells [7] = assay: cells
Nonstructural protein 1 = Nonstructural protein 1 (Influenza A virus, UniProt Q194T2); format: functional, Influenza A virus (A/California/07/2009(H1N1))
Sequence of Nonstructural protein 1 (Q194T2 whole entry): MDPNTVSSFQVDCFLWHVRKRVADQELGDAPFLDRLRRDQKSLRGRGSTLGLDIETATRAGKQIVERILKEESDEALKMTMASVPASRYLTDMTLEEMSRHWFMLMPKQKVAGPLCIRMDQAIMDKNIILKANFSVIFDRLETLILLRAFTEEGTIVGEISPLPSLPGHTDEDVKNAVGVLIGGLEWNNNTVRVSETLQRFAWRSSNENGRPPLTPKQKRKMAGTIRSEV

[8] = molecular target: T4, Sentrin-specific protease 7; format: functional
[9] = molecular target: Oxysterols receptor LXR-beta (Homo sapiens, UniProt P55055); format: functional, cell-based;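 note: Cell-based luminescence dose-response assay of agonist activity at LXR, run as a confirmatory counterscreen to a daf-12 agonist screen; HEK293 cells with Gal4-LXR fusion and GAL4-driven luciferase reporter; agonist potency from rising luciferase signal of a Gal4-LXR reporter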
Sequence of Oxysterols receptor LXR-beta (P55055 whole entry, the tested form may be a part): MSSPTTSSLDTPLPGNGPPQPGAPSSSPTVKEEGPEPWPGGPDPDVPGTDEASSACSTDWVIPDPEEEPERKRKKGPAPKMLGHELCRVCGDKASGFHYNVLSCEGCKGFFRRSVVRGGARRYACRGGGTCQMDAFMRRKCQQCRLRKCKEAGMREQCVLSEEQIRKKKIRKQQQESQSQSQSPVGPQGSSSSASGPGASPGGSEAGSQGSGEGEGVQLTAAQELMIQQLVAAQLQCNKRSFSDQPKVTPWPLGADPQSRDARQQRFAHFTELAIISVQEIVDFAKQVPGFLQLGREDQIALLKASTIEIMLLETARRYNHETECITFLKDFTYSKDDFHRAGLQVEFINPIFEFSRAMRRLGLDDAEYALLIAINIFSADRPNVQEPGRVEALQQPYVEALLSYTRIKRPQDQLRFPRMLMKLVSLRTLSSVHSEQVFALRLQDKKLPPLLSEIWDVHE

[10] = molecular target: T2, Sentrin-specific protease 8; format: functional
Caspase-3 [11] = molecular target: T3, Caspase-3; format: functional
[12] = inhibition of Env-driven cell fusion – HIV entry, plate reader, dry powder, dose response (AID 687023); format: functional, cell-based
[13] = viability loss in CEM21 cells – cell-based, plate reader, dry powder, cytotoxicity control, dose response (AID 687026); format: functional
Aminopeptidase N = molecular target: T5, Aminopeptidase N (Plasmodium falciparum FcB1/Columbia, UniProt O96935); assay: malaria alanyl aminopeptidase activity blockers – biochemical, fluorogenic H-Leu-NHMec substrate, 1536-well (AID 1445); parameters: species or system Plasmodium falciparum 3D7, 3D7
T5 sequence (O96935 whole entry): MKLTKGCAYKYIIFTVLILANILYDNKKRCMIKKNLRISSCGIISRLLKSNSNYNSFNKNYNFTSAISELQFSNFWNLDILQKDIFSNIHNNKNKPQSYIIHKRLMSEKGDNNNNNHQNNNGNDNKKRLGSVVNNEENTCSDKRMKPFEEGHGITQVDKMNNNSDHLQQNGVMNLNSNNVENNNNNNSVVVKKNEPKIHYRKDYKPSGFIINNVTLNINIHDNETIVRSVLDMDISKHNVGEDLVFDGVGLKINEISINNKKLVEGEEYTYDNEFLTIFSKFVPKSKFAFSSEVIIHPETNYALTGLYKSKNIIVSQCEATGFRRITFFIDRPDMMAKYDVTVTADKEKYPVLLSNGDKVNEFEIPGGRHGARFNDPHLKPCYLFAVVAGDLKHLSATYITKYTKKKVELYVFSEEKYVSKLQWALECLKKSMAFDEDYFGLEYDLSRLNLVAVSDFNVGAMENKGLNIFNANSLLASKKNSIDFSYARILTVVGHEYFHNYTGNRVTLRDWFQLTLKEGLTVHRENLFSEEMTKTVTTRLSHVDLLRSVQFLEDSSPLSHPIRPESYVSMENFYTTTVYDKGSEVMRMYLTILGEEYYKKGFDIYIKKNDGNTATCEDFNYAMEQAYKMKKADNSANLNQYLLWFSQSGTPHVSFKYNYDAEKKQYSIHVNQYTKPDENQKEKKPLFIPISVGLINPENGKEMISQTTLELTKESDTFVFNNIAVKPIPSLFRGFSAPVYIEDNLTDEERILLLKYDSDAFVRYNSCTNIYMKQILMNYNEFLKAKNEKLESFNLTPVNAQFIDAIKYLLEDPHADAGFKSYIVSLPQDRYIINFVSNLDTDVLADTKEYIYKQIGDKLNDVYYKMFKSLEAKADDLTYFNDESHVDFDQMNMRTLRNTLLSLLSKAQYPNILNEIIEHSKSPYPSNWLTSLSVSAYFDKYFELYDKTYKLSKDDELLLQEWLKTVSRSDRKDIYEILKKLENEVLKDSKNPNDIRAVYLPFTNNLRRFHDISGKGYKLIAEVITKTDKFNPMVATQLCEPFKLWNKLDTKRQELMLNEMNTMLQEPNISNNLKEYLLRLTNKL

Kallikrein-7 = Kallikrein-7 (Homo sapiens, UniProt P49862); assay: Fluorescence Intensity-based biochemical primary high throughput dose response assay to identify activators of kallikrein-7 (K7) zymogen.
Sequence of Kallikrein-7 (P49862 whole entry): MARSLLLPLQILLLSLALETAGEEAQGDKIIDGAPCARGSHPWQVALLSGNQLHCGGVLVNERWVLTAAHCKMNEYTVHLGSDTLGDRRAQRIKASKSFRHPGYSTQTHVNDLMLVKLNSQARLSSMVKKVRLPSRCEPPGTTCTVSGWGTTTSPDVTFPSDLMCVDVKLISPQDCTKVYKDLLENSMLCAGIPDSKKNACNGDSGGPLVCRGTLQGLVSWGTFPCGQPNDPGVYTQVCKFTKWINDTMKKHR

cells [14] = format: functional
[15] = Late-stage results from the probe development effort to identify antagonists of arginine vasopressin receptor 1a (AVPR1a): fluorescence-based cell-based dose response AVPR1a inhibition assay.; format: functional
[16] = Late-stage results from the probe development effort to identify antagonists of arginine vasopressin receptor 1a (AVPR1a): fluorescence-based cell-based dose response OXTR inhibition counterscreen assay.; format: functional
[17] = Late-stage results from the probe development effort to identify antagonists of arginine vasopressin receptor 1a (AVPR1a): luminescence-based cell-based dose response counterscreen assay to determine cytotoxicity of the test compound.; format: functional
Vasopressin V1b receptor = Vasopressin V1b receptor (Homo sapiens, UniProt P47901); assay: Late-stage results from the probe development effort to identify antagonists of arginine vasopressin receptor 1a (AVPR1a): fluorescence-based cell-based dose response AVPR1b inhibition counterscreen assay.; format: functional
Sequence of Vasopressin V1b receptor (P47901 whole entry): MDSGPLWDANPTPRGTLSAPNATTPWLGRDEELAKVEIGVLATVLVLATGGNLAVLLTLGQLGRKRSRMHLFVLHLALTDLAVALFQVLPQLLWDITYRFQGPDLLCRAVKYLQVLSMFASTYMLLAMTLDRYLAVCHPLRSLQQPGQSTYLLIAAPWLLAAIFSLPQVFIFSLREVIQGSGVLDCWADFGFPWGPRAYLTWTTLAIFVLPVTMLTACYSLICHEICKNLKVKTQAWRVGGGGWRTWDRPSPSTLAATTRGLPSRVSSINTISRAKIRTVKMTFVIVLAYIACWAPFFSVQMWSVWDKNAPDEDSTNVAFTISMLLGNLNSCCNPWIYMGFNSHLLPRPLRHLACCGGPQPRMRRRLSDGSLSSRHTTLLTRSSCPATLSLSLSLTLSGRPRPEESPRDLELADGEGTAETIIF

Vasopressin V2 receptor = Vasopressin V2 receptor (Homo sapiens, UniProt P30518); assay: Late-stage results from the probe development effort to identify antagonists of arginine vasopressin receptor 1a (AVPR1a): fluorescence-based cell-based dose response AVPR2 inhibition counterscreen assay.; format: functional
Sequence of Vasopressin V2 receptor (P30518 whole entry): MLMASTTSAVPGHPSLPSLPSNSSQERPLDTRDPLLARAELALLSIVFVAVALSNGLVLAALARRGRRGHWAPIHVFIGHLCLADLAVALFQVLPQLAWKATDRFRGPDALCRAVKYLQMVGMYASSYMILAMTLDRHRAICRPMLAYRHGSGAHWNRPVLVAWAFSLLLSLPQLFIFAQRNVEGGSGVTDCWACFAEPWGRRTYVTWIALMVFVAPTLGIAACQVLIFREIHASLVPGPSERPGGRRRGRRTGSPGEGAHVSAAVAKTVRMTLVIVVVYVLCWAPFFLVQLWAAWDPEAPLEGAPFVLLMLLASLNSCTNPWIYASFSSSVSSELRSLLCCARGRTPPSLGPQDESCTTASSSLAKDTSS

With CCCNC(=O)N(C)C[C@@H]1Oc2ncc(C#CC3CCCCC3)cc2C(=O)N([C@H](C)CO)C[C@@H]1C the AC50 [1] was 59.7 µM (active).

With O=[N+]([O-])c1ccccc1N/N=C/c1c[nH]c2ccccc12 the IC50 [2] was 5.73 µM (active), the IC50 [3] was 6.32 µM (active) and the IC50 (Caspase-3 [4]) was 17.4 µM (active). For the same compound, the IC50 [5] was > 100 µM (inactive), the IC50 [6] was 2.26 µM (active) and the AC50 (Cytochrome P450 2D6) was 20 µM (inconclusive). The EC50 (cells [7]) was > 67.5 µM (inactive), the IC50 (Nonstructural protein 1) was 19 µM (active) and the IC50 [8] was 3.36 µM (active). For the same compound, the EC50 [9] was > 67.5 µM (inactive), the IC50 [10] was > 100 µM (inactive) and the IC50 (Caspase-3 [11]) was 32.8 µM (active).

In the case of COc1ccc(S(=O)(=O)NCc2ccncc2)cc1OC, the AC50 [12] is reported as 25.4 µM (active) and 32 µM (active) and the AC50 [13] is reported as > 70 µM (inactive).

In the case of O=C(Oc1c(-c2ccco2)oc2ccccc2c1=O)c1cccnc1, the IC50 (Aminopeptidase N) is reported as 129 µM (active), the EC50 (Kallikrein-7) is reported as 19.6 µM (inactive) and the IC50 (cells [14]) is reported as 20.5 µM (active).

With O=C(C1CCN(c2ccc(Cl)cn2)CC1)N(CC1CC1)c1ccc(Cl)cc1 the IC50 [15] was 0.04 µM (active), the IC50 [16] was > 50 µM (inactive) and the CC50 [17] was > 25 µM (inactive). For the same compound, the IC50 (Vasopressin V1b receptor) was > 50 µM (active) and the IC50 (Vasopressin V2 receptor) was > 50 µM (inactive).
